We go through 3 compounds from patent US20220409595A1, “GLUCOSYLCERAMIDE SYNTHASE INHIBITORS” (GENZYME CORPORATION, priority 2013, published 2022).

The test system of experiment [1] is Fabry iPSC-derived cardiomyocytes. Put plainly: GL-3 content of Fabry iPSC-derived cardiomyocytes (beating EBs) by mass spectrometry. The format is cell-based, human. On the procedure: GCS452 [(S)-quinuclidin-3-yl (2-(2-(4-fluorophenyl)thiazol-4-yl)propan-2-yl) carbamate], a selective glucosylceramide synthase inhibitor, was tested to evaluate its potential to prevent GL-3 accumulation in Fabry iPSC-derived cardiomyocytes. EBs were treated eighteen days after induction of cardiac differentiation. At this time point, accumulation was low in the FD cardiomyocytes (FIG. 4). The FD and WT cardiomyocytes were treated with 1 μM GCS452 for 15 days.
It was next determined whether the compound could reduce levels of accumulated GL-3 when significant GL-3 accumulation is present at the start of treatment (FIG. 4). […]
In parallel, it was investigated whether agalsidase beta could clear accumulated GL-3 in one month old Fabry cardiomyocytes. EBs were treated with 0.3p g/mL of agalsidase beta for 5 days and GL-3 content was analyzed as described for GCS452. GL-3 vacuoles were not detected in treated Fabry cardiomyocytes using ICC (FIG. 5C). […]
Pellets containing EBs were extracted in a solution of acetonitrile:methanol (1:1). The extracts were directly injected onto a 2.1×100 mm, 1.7 μM BEH Hilic column (Waters), resolved with a Waters Acquity UPLC system, and analyzed for C16, C18, C20, C22, C23, C24, C24:1, C24(OH), and C24:1(OH) GL-3 isoforms and lyso-GL-3 in multiple-reaction monitoring (MRM) and positive-ion mode with an API-4000 mass spectrometer (ABSciex, Framingham, Mass.). […]

Experiment [2] shares this test system. Put plainly: Immunocytochemistry of GL-3 and Lamp2 in Fabry iPSC-derived cardiomyocytes. The experiment is classed as cell-based, human. The method, then: It was next determined whether the compound could reduce levels of accumulated GL-3 when significant GL-3 accumulation is present at the start of treatment (FIG. 4). Twenty eight post-start of differentiation, beating EBs were treated with 1 μM of GCS452 for 15 days. The EBs were dissociated and plated at the end of the treatment, and ICC analysis was performed. […] GL-3 reduction in treated Fabry EBs was confirmed by mass spectrometry. While there was a 13 to 18 fold increase of GL-3 in untreated FD cardiomyocytes compared to WT, GL-3 levels increased by 4.5 to 5.5 fold in treated FD cardiomyocytes after 15 days of treatment with GCS452. This corresponds to a 2.3 to 2.8 fold reduction in accumulated GL-3 as compared to GL-3 levels at the start point (TO) of treatment (FIG. 5B). In parallel, it was investigated whether agalsidase beta could clear accumulated GL-3 in one month old Fabry cardiomyocytes. EBs were treated with 0.3p g/mL of agalsidase beta for 5 days and GL-3 content was analyzed as described for GCS452. GL-3 vacuoles were not detected in treated Fabry cardiomyocytes using ICC (FIG. 5C). […] One month old beating EBs were harvested and dissociated by using the embryoid body dissociation kit (Miltenyi Biotech, Bergisch Gladbach). Dissociated cells were plated on matrigel coated dishes. Five days latter, cells were fixed using 8% de formaldehyde solution (Sigma-Aldrich, St. Louis, Mo.) in DPBS (Gibco, Carlsbad, Calif.) and permeabilized in 0.05% Tween 20 (Sigma Life Science, St. Louis, Mo.) 20 minutes at room temperature. The samples were incubated with the primary antibodies over night at 4° C. Secondary antibodies were applied one hour at room temperature. Primary antibodies used were mouse monoclonal IgG1 directed against—Actinin, at the final dilution 1/1500 (Sigma Life Science, St. Louis, Mo.), rat monoclonal IgM directed against GL-3/CD77, at the final dilution 1/300 (Abcam, Cambridge, US) and mouse monoclonal IgG1 directed against LAMP2, at the final dilution 1/500 (Santa Cruz Biotechnology, Dallas, Tex.). The secondary antibodies were Alexa Fluor 488 goat anti-mouse IgG (Molecular Probes, Carlsbad, Calif.) Alexa Fluor 555 goat anti-mouse IgG (Molecular Probes, Carlsbad, Calif.) and Alexa Fluor 488 goat anti-rat IgG (Molecular Probes, Carlsbad, Calif.). They were used at the final dilution 1/1000.

Experiment [3] relates to Fabry patients. Particulars: cited from earlier work.
Experiment [4] deals with K14 mouse model of type 2 Gaucher disease. To be noted: cited from earlier work.
[5] abbreviates: 1 μM for 15 days, treatment from day 28.
Where [6] appears, read: 0.3p g/mL for 5 days, one month old Fabry cardiomyocytes.
The mark [7] stands for this setting: 3 μg/mL, one month old Fabry iPSC-derived cardiomyocytes, end of treatment.

Entries after “also recorded” stand apart in the source; their conditions may differ. Like-named read-outs stand apart in the source and are kept apart here.

As for `CC(C)(NC(=O)O[C@@H]1CN2CCC1CC2)c1csc(-c2ccc(F)cc2)n1` [GCS452, (S)-quinuclidin-3-yl (2-(2-(4-fluorophenyl)thiazol-4-yl)propan-2-yl) carbamate], the “GL-3 levels / accumulation in treated FD cardiomyocytes (prevention)” value in experiment [1] (1 μM for 15 days, treatment from day 18 after induction of cardiac differentiation) is given as “close to the physiological levels of WT untreated cells”. In experiment [2] (setting [5]), the “GL-3 labeling (ICC)” value is recorded as “not or was very slightly detectable; also recorded: significant reduction” and the “Lamp2 signal intensity / number of Lamp2 vacuoles (ICC)” value is reported as “reduced; also recorded: concomitant decrease”.
Consider “agalsidase beta: recombinant α-GalA, enzyme replacement therapy approved for the treatment of Fabry disease”, for which, in experiment [1] (setting [6]), the “GL-3 clearance in Fabry cardiomyocytes” value is reported as “Complete clearance; also recorded: clearance of GL-3”. Besides, in experiment [2] (setting [7]), the “GL-3 content (ICC), FIG. 5C legend” value is “not or was very slightly detectable”; the “number of Lamp2 vacuoles and intensity of the signal (ICC), FIG. 5C legend” value is recorded as “reduced”. The “GL-3 vacuoles (ICC)” value in experiment [2] (setting [6]) is “not detected”. Moreover, the “GL-3 deposits / accumulation in cardiomyocytes” value in experiment [3] (Fabry patients, cardiac biopsies, after 5 and 12 months of treatment) is “not reduced; also recorded: no effect”. Further, the “GL-3 deposits in capillary endothelium / heart microvasculature” value in experiment [3] (Fabry patients) is on record as “effectively clears”. Further, the “GL-3 deposits in capillary endothelium / heart microvasculature” value in experiment [3] (Fabry patients, listed as Agalsidase beta) is reported as “consistently clear”. Further, the left ventricular mass result in experiment [3] (treated Fabry patients) is given as “Modest reductions”.
In the case of `CC(C)(NC(=O)OC1CN2CCC1CC2)c1cccc(-c2ccc(F)cc2)c1` (centres unmarked) [Gz161, Quinuclidin-3-yl (2-(4′-fluoro-[1,1′-biphenyl]-3-yl)propan-2-yl)carbamate], in experiment [4], the brain neuropathology entry is reported as “reduced” and the lifespan result is listed as “extended”. In experiment [4] (see Examples 122-125 of WO2012/129084), the “brain GluCer and GluSph” value is on record as “reduce”.
